The source of these data is paper PMC3608532, “Characterization of a Single-Chain Variable Fragment Recognizing a Linear Epitope of Aβ: A Biotechnical Tool for Studies on Alzheimer’s Disease?” (PLoS ONE, 2013).

pKd: −log10 of the molar value.

One experiment concerns Aβ(1-8). The experiment is described as follows: SPR binding kinetics to immobilized Aβ(1-8). Particulars: SPR Biacore X, PBS, 25°C, global fit, scFv-IC16 Langmuir 1:1 model, IC16 bivalent model, ± standard error, SEM. On the procedure:
(§1) Binding kinetics were determined by SPR using a Biacore™ X (GE Healthcare, UK). Synthetic Aβ peptides were dissolved in 10 mM NaAc, pH 4.0. The CM5 sensor chip surface (GE Healthcare, UK) was activated using N-ethyl-N′-3 […] carbodiimide (EDC) and N-hydroxysuccinimide (NHS) chemistry followed by 2-(2-pyridinyldithio)ethaneamine hydrochloride (PDEA), in order to introduce a reactive thiol group. Aβ was coupled via the C-terminal cysteine to the chip at a flow rate of 5 µl/min, and the remaining active groups were blocked by injecting cysteine. The immobilization procedure was performed according to manufacturer’s recommendation. All kinetic analyses were performed at a flow rate of 20 µl/min in PBS. Varying concentrations of scFv-IC16 (10 to 5000 nM) and IC16 (10 to 1000 nM) were injected. […] When required, the surface was regenerated by injecting 20 µl 50 mM glycine, pH 11.0. The data evaluation was performed using Biaevaluation Software 4.1.1. ScFv-IC16 data were fitted according to the Langmuir 1∶1 binding model, whereas IC16 data were fitted according to the bivalent binding model. Standard errors of equilibrium dissociation constants (KD) were calculated using standard errors of the corresponding association and dissociation rate constants.
A general note: SPR reads the build-up and loss of mass on a sensor chip optically.

The subject of a further experiment is Aβ(3-8). Briefly: SPR binding kinetics to immobilized Aβ(3-8). The settings on record: SPR Biacore X, CM5 chip, PBS, 25°C, global fit; scFv-IC16 Langmuir 1:1 model, IC16 bivalent model; ± standard error; SEM. On the procedure:
as §1

For the next experiment, the target named is Aβ(pE3-8). The experiment is described as follows: SPR binding kinetics to immobilized Aβ(pE3-8). The settings on record: SPR Biacore X, CM5 chip, PBS, 25°C, global fit, IC16 bivalent model. The protocol: as §1
The subject of another experiment is Aβ(2-8). Briefly: SPR binding kinetics to immobilized Aβ(2-8). Particulars: SPR Biacore X, CM5 chip, PBS, 25°C, global fit; scFv-IC16 Langmuir 1:1 model, IC16 bivalent model; ± standard error; SEM. On the procedure: as §1
Another experiment deals with Aβ(8-15). Briefly: SPR binding kinetics to immobilized Aβ(8-15). On the procedure: as §1

One may read the pKd as the Kd on a negative log10 scale, so that one unit is a factor of ten. Read a high pKd as a small Kd.

“IC16: monoclonal IgG2a antibody recognizing Aβ(1-8), from hybridoma of mouse immunized with KLH Aβ(1-16)”: the k on in the experiment with Aβ(1-8) (Aβ peptide coupled via C-terminal cysteine to CM5 chip, 20 µl/min) was 3.5±0.02×10^4 M^-1 s^-1; in the experiment with Aβ(3-8), 4.17±0.006×10^4 M^-1 s^-1; with Aβ(pE3-8) (± standard error, SEM), 4.21±0.008×10^4 M^-1 s^-1; with Aβ(2-8), 4.85±0.01×10^4 M^-1 s^-1. Further, the k off in the experiment on Aβ(1-8) (CM5 chip) is given as 1.8±0.02×10^−3 s^-1; in the experiment on Aβ(3-8) it was 3.43±0.007×10^−3 s^-1; in the experiment on Aβ(pE3-8) (± standard error, SEM), 63±0.05×10^−3 s^-1; with Aβ(2-8) it was 1.54±0.006×10^−3 s^-1. On Aβ(pE3-8) (n.d. = no detectable binding (footnote)), this substance had a pKd of 5.82. In addition, in the experiment with Aβ(8-15), the “interaction with Aβ(8-15)” value is listed as “No interaction”.
